# According to publication PMC6352943, “Novel pyrazolo[3,4-d]pyrimidines: design, synthesis, anticancer activity, dual EGFR/ErbB2 receptor tyrosine kinases inhibitory activity, effects on cell cycle profile and caspase-3-mediated apoptosis” (Journal of Enzyme Inhibition and Medicinal Chemistry, 2019):
# Tests used:
# RPMI-8226 = test: NCI 60 cell line single dose screen (SRB); type: cell-based; details: Homo sapiens; RPMI-8226 (leukemia), single dose 10^−5 M, 48 h; read-out: Growth inhibition percentage
# Procedure, shortened: (§1)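 Cells were plated and grown 24 h at 37 °C, 5% CO2 before compound addition from DMSO stock, then exposed 48 h. Adherent cells were fixed with cold TCA (final 10%) and suspension cells with 16% TCA. SRB-stained protein was read at 515 nm and percent growth was calculated against time-zero and untreated plates.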
# CAKI-1 = test: NCI 60 cell line single dose screen (SRB); type: cell-based; details: Homo sapiens; CAKI-1 (renal cancer), single dose 10^−5 M, 48 h; read-out: Growth inhibition percentage
# Procedure, shortened: as §1
# SR = test: NCI 60 cell line single dose screen (SRB); type: cell-based; details: Homo sapiens; SR (leukemia), single dose 10^−5 M, 48 h; read-out: Growth inhibition percentage
# Procedure, shortened: as §1
# UACC-62 = test: NCI 60 cell line single dose screen (SRB); type: cell-based; details: Homo sapiens; UACC-62 (melanoma), single dose 10^−5 M, 48 h; read-out: Growth inhibition percentage
# Procedure, shortened: as §1
# CCRF-CEM = test: NCI 60 cell line single dose screen (SRB); type: cell-based; details: Homo sapiens; CCRF-CEM (leukemia), single dose 10^−5 M, 48 h; read-out: Growth inhibition percentage
# Procedure, shortened: as §1
# TK-10 = test: NCI 60 cell line single dose screen (SRB); type: cell-based; details: Homo sapiens; TK-10 (renal cancer), single dose 10^−5 M, 48 h; read-out: Growth inhibition percentage
# Procedure, shortened: as §1
# SK-OV-3 = test: NCI 60 cell line single dose screen (SRB); type: cell-based; details: Homo sapiens; SK-OV-3 (ovarian cancer), single dose 10^−5 M, 48 h; read-out: Growth inhibition percentage
# Procedure, shortened: as §1
# HS 578T = test: NCI 60 cell line single dose screen (SRB); type: cell-based; details: Homo sapiens; HS 578T (breast cancer), single dose 10^−5 M, 48 h; read-out: Growth inhibition percentage
# Procedure, shortened: as §1
# MALME-3M = test: NCI 60 cell line single dose screen (SRB); type: cell-based; details: Homo sapiens; MALME-3M (melanoma), single dose 10^−5 M, 48 h; read-out: Growth inhibition percentage
# Procedure, shortened: as §1
# ACHN = test: NCI 60 cell line single dose screen (SRB); type: cell-based; details: Homo sapiens; ACHN (renal cancer), single dose 10^−5 M, 48 h; read-out: Growth inhibition percentage
# Procedure, shortened: as §1
# NCI-H522 = test: NCI 60 cell line single dose screen (SRB); type: cell-based; details: Homo sapiens; NCI-H522 (non-small cell lung cancer), single dose 10^−5 M, 48 h; read-out: Growth inhibition percentage
# Procedure, shortened: as §1
# RXF 393 = test: NCI 60 cell line single dose screen (SRB); type: cell-based; details: Homo sapiens; RXF 393 (renal cancer), single dose 10^−5 M, 48 h; read-out: Growth inhibition percentage
# Procedure, shortened: as §1
# MDA-MB-231/ATCC = test: NCI 60 cell line single dose screen (SRB); type: cell-based; details: Homo sapiens; MDA-MB-231/ATCC (breast cancer), single dose 10^−5 M, 48 h; read-out: Growth inhibition percentage
# Procedure, shortened: as §1
# SW-620 = test: NCI 60 cell line single dose screen (SRB); type: cell-based; details: Homo sapiens; SW-620 (colon cancer), single dose 10^−5 M, 48 h; read-out: Growth inhibition percentage
# Procedure, shortened: as §1
# HL-60(TB) = test: NCI 60 cell line single dose screen (SRB); type: cell-based; details: Homo sapiens; HL-60(TB) (leukemia), single dose 10^−5 M, 48 h; read-out: Growth inhibition percentage
# Procedure, shortened: as §1
# HT29 = test: NCI 60 cell line single dose screen (SRB); type: cell-based; details: Homo sapiens, HT-29; HT29 (colon cancer), single dose 10^−5 M, 48 h; read-out: Growth inhibition percentage
# Procedure, shortened: as §1
# NCI-H23 = test: NCI 60 cell line single dose screen (SRB); type: cell-based; details: Homo sapiens; NCI-H23 (non-small cell lung cancer), single dose 10^−5 M, 48 h; read-out: Growth inhibition percentage
# Procedure, shortened: as §1
# 786-0 = test: NCI 60 cell line single dose screen (SRB); type: cell-based; details: Homo sapiens; 786-0 (renal cancer), single dose 10^−5 M, 48 h; read-out: Growth inhibition percentage
# Procedure, shortened: as §1
structure (smiles),measurement,setting,value
"Cc1nn(-c2ccc(F)cc2)c2ncnc(Cl)c12 [Compound 6, 4-Chloro-1–(4-fluorophenyl)-3-methyl-1H-pyrazolo[3,4-d]pyrimidine]",melting point,,178 to 180 °C
same,inhibition at 10 µM,RPMI-8226,2.21%
same,inhibition at 10 µM,CAKI-1,1.02%
same,inhibition at 10 µM,SR,14.4%
same,inhibition at 10 µM,UACC-62,12.6%
same,inhibition at 10 µM,CCRF-CEM,1.47%
same,inhibition at 10 µM,TK-10,-23%
same,inhibition at 10 µM,SK-OV-3,13.7%
same,inhibition at 10 µM,HS 578T,4.54%
same,inhibition at 10 µM,MALME-3M,-4.3%
same,inhibition at 10 µM,ACHN,4.11%
same,inhibition at 10 µM,NCI-H522,59%
same,inhibition at 10 µM,RXF 393,-3.61%
same,inhibition at 10 µM,MDA-MB-231/ATCC,10.8%
same,inhibition at 10 µM,SW-620,-2.88%
same,inhibition at 10 µM,HL-60(TB),14%
same,inhibition at 10 µM,HT29,9.55%
same,inhibition at 10 µM,NCI-H23,7.86%
same,inhibition at 10 µM,786-0,-0.09%
